Experimental data: patent US12516038B2, “Inhibitors of antigen presentation by HLA-DR” (Janssen Pharmaceutica NV, priority 2020, dated 2026)

Legend:
[1] = target: HLA-DRB1*0401 (Homo sapiens (Human), UniProt P01903+P01911, A100K/A169T/DEL228-266/F76Y/I96L/K127E/L162R/M171V/N62H/P40V/Q125Y/R42H/S133A/S149N/S66Y/V115G/V209L/W38E); assay: HLA-DR4 HTRF assay; assay type: binding; settings: inhibition of loading of Alexa Fluor 647-labeled Cit-CII peptide onto HLA-DR4 (CLIP cleaved)
Method in brief: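 HLA-DRB1*04:01 construct (α/β fused to human Fc, CLIP pre-cleaved by HRV3C overnight at 4° C) at 3 nM was preincubated 45 min with compound and 1 nM anti-Fc-Tb donor, then 40 nM Alexa647-Cit-CII1236-1249 peptide added. After 90 min at 37° C, the 665/620 nm HTRF ratio gave % inhibition; IC50 by nonlinear regression.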

[2] = tested on: HLA-DR4 restricted mouse T cell hybridoma line (DR4.CII.36.8) with HLA-DRB1*04:01-expressing Boleth cells; assay: HLA-DR4-restricted peptide-specific T cell-based assay (hybridoma assay); settings: Mus musculus, T-cell, 6 h, inhibition of IL-2 production, CII259-273 peptide presented by Boleth cells
Method in brief: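 Boleth cells (HLA-DRB1*04:01 B cell line) pre-incubated with compound 1 h at 37° C. in DMEM/1% FCS, then DR4.CII.36.8 mouse T cell hybridoma (CII259-273-specific) added for 6 h with CII259-273 peptide. Supernatant mouse IL-2 by AlphaLISA; IC50 by 4-PL fit of 8-point duplicate titrations.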

[3] = tested on: human peripheral blood CD4+ helper T cells; assay: Pan-CD4+ T cell activation (off-target assay); assay type: cell-based; settings: Homo sapiens, T-cell, 24 h, anti-CD3/anti-CD28 stimulation, IL-2 production by ELISA
Description: The counter-screening was made through an HLA-DR-independent assay (Pan-CD4+ T cell activation assay), i.e., TCR-stimulated pan-T cell activation assay, and consists of activating T cell directly with agonistic antibody targeting the T cell receptor. The lack of inhibition in the counter-screening assay reflects that the inhibition of T cell activation in the HLA-DR4 restricted peptide-specific T cell based assay with the small molecule inhibitors is due to impaired antigen presentation on HLA-DR to the T cell and not due to a direct inhibition of the T cell function by an off-target mechanism (i.e., independently of targeting HLA-DR).
Pan-CD4+ T Cell Activation
Compounds were tested using a pan-T cell activation assay. In this assay, anti-human CD3 antibody (BD Pharmingen #55336) pre-coated at 1 μg/mL to a 96-well assay plate and 1 μg/ml soluble anti-human CD28 (EBioscience #16-0289-85) antibody were used for activating human peripheral blood CD4+ helper T cells (no HLA-DR-expressing APC were present in this assay format), in the presence of compounds (or vehicle control) for 24 hrs. IL-2 production was measured in the culture supernatant by ELISA (Human IL-2 Duo Set ELISA #DY202 from R&D Systems).

Row | SMILES | IC50 [1] | IC50 [2] | IC50 [3]
1 | Cc1c(O[C@H](c2ccc(C(N)=O)cc2)c2ccccc2C#N)ccc2c1OCCC2=O (single isomer, unassigned) [Example 61a, (*R)-4-((2-cyanophenyl)((8-methyl-4-oxochroman-7-yl)oxy)methyl)benzamide] | 990 nM | 4600 nM | 2.7 µM
2 | O=C1CCOc2cc(O[C@@H](c3ccncc3)C3CCCCC3)ccc21 (single isomer, unassigned) [Example 38a, (*R)-7-(cyclohexyl(pyridin-4-yl)methoxy)chroman-4-one] | 4600 nM | 4000 nM | 4.7 µM
3 | NC(=O)c1ccc([C@@H](Oc2ccc3c(c2)OCCC3=O)c2cccnc2)cc1 (single isomer, unassigned) [Example 31a, (*R)-4-(((4-oxochroman-7-yl)oxy)(pyridin-3-yl)methyl)benzamide] | 850 nM | 5500 nM | 15 µM
4 | Cc1c(O[C@H](c2ccccc2)c2ccc(C(N)=O)cc2)ccc2c1OCCC2=O (single isomer, unassigned) [Example 69a, (*R)-4-(((8-Methyl-4-oxochroman-7-yl)oxy)(phenyl)methyl)benzamide] | 2100 nM | 2200 nM | 6.1 µM
5 | O=C1CCOc2cc(O[C@H](c3ccncc3)c3cccc(F)c3)ccc21 (single isomer, unassigned) [Example 2a, (*R)-7-((3-Fluorophenyl)(pyridin-4-yl)methoxy)chroman-4-one] | 1600 nM | 1700 nM | 15 µM
6 | COc1cc([C@@H](Oc2ccc3c(c2)OCCC3=O)c2ccc(C(N)=O)cc2)ccn1 (single isomer, unassigned) [Example 24b, (*S)-4-((2-methoxypyridin-4-yl)((4-oxochroman-7-yl)oxy)methyl)benzamide] | 1200 nM | 2700 nM | 4.7 µM
7 | Cc1c(O[C@@H](c2ccc(C(N)=O)cc2)c2ccc(Cl)cn2)ccc2c1OCCC2=O (single isomer, unassigned) [Example 62b, (*S)-4-((5-chloropyridin-2-yl)((8-methyl-4-oxochroman-7-yl)oxy)methyl)benzamide] | 1400 nM | 1800 nM | 2.7 µM
8 | Cc1c(O[C@H](c2ccc(C#N)cc2)c2ccc(C(N)=O)cc2)ccc2c1OCCC2=O (single isomer, unassigned) [Example 59a, (*R)-4-((4-cyanophenyl)((8-methyl-4-oxochroman-7-yl)oxy)methyl)benzamide] | 1200 nM | 3200 nM | 4.7 µM
9 | CC[C@@H]1CC(=O)c2ccc(O[C@@H](c3ccncc3)c3ccc(C(N)=O)cc3)cc2O1 (single isomer, unassigned) [Example 40a, 4-((*R)—(((*R)-2-ethyl-4-oxochroman-7-yl)oxy)(pyridin-4-yl)methyl)benzamide] | 1500 nM | 760 nM | 15 µM
10 | NC(=O)c1ccc(C(Oc2ccc3c(c2)OCCC3=O)c2ccncc2)cc1 (racemic) [Example 11, (R,S)-4-(((4-Oxochroman-7-yl)oxy)(pyridin-4-yl)methyl)benzamide] | 650 nM | 1200 nM | > 15 µM
11 | O=C1CCOc2cc(O[C@H](c3ccccc3)c3ccncc3)ccc21 (single isomer, unassigned) [Example 114a, (*R)-7-(phenyl(pyridin-4-yl)methoxy)chroman-4-one] | 1400 nM | 5500 nM | > 15 µM
12 | CN(C)C(=O)c1ccc([C@@H](Oc2ccc3c(c2)OCCC3=O)c2ccncc2)cc1 (single isomer, unassigned) [Example 72a, (*R)—N,N-dimethyl-4-(((4-oxochroman-7-yl)oxy)(pyridin-4-yl)methyl)benzamide] | 840 nM | 6300 nM | 9.9 µM
13 | Cc1cc2c(cc1O[C@@H](c1ccncc1)c1ccc(C(N)=O)cc1)OCCC2=O (single isomer, unassigned) [Example 49a, (*R)-4-(((6-Methyl-4-oxochroman-7-yl)oxy)(pyridin-4-yl)methyl)benzamide] | 570 nM | 200 nM | 9.9 µM
14 | Cc1c(O[C@@H](c2ccncc2)c2ccc(C(N)=O)cc2)c(F)cc2c1OCCC2=O (single isomer, unassigned) [Example 58a, (*R)-4-(((6-fluoro-8-methyl-4-oxochroman-7-yl)oxy)(pyridin-4-yl)methyl)benzamide] | 330 nM | 180 nM | 5.3 µM
15 | Cc1c(O[C@@H](c2ccncc2)c2ccc(C(N)=O)cc2OC(C)C)ccc2c1OCCC2=O (single isomer, unassigned) [Example 84b, (*S)-3-isopropoxy-4-(((8-methyl-4-oxochroman-7-yl)oxy)(pyridin-4-yl)methyl)benzamide] | < 1000 nM | 6500 nM | 1.7 µM
16 | COc1ccc(COc2cccc([C@@H](Oc3ccc4c(c3)OCCC4=O)c3ccncc3)c2)cc1 (single isomer, unassigned) [Example 4b, (*S)-7-((3-((4-Methoxybenzyl)oxy)phenyl)(pyridin-4-yl)methoxy)chroman-4-one] | 7900 nM | 2600 nM | 15 µM
17 | CCc1cc2c(cc1O[C@H](c1ccncc1)c1ccc(C(N)=O)cc1)OCCC2=O (single isomer, unassigned) [Example 74b, (*S)-4-(((6-ethyl-4-oxochroman-7-yl)oxy)(pyridin-4-yl)methyl)benzamide] | 920 nM | 1900 nM | 15 µM
18 | CC(C)c1c(O[C@@H](c2ccncc2)c2ccc(C(N)=O)cc2)ccc2c1OCCC2=O (single isomer, unassigned) [Example 75a, (*R)-4-(((8-isopropyl-4-oxochroman-7-yl)oxy)(pyridin-4-yl)methyl)benzamide] | 600 nM | 62 nM | 4.7 µM
19 | Cc1c(O[C@H](c2ccc(Cl)cc2)c2ccc(C(N)=O)nc2)ccc2c1OCCC2=O (single isomer, unassigned) [Example 64a, (*R)-5-((4-chlorophenyl)((8-methyl-4-oxochroman-7-yl)oxy)methyl)picolinamide] | 1700 nM | 6000 nM | 2 µM
20 | NC(=O)c1ccc([C@H](Oc2ccc3c(c2)OCCC3=O)c2ccncc2)cc1 (single isomer, unassigned) [Example 11b, (*S)-4-(((4-oxochroman-7-yl)oxy)(pyridin-4-yl)methyl)benzamide] | 950 nM | 4700 nM | > 15 µM
21 | O=C1CCOc2cc(O[C@H](c3ccncc3)C3CCCCC3)ccc21 (single isomer, unassigned) [Example 38b, (*S)-7-(cyclohexyl(pyridin-4-yl)methoxy)chroman-4-one] | 4100 nM | 5500 nM | > 15 µM
22 | CCOc1cc(C(N)=O)ccc1[C@H](Oc1ccc2c(c1C)OCCC2=O)c1ccncc1 (single isomer, unassigned) [Example 83a, (*R)-3-ethoxy-4-(((8-methyl-4-oxochroman-7-yl)oxy)(pyridin-4-yl)methyl)benzamide] | 950 nM | 2700 nM | 0.99 µM
23 | NC(=O)c1ccc([C@@H](Oc2ccc3c(c2)OCC(c2ccccc2)C3=O)c2ccncc2)cc1 (stereo in doubt) [Example 47, 4-((1*R)-((4-Oxo-3-phenylchroman-7-yl)oxy)(pyridin-4-yl)methyl)benzamide] | 6500 nM | 600 nM | 9.9 µM
24 | CC[C@H]1CC(=O)c2ccc(O[C@H](c3ccncc3)c3ccc(C(N)=O)cc3)cc2O1 (single isomer, unassigned) [Example 41b, 4-((*S)—(((*S)-2-ethyl-4-oxochroman-7-yl)oxy)(pyridin-4-yl)methyl)benzamide] | 1100 nM | 1500 nM | > 15 µM
25 | O=C1CCOc2cc(O[C@@H](c3ccncc3)c3ccc(F)cc3)ccc21 (single isomer, unassigned) [Example 3a, (*R)-7-((4-Fluorophenyl)(pyridin-4-yl)methoxy)chroman-4-one] | 1600 nM | 4200 nM | 15 µM
